Source: patent US10913757B2, “Hydroxycinnamic derivatives, methods and uses thereof” (UNIVERSIDADE DO PORTO, priority 2016, dated 2021)
Marks after values point to notes of the source that are not given here.

Columns and labels:
[1] = DPPH radical scavenging activity (TAC assay); format: biochemical; settings: ethanol, absorbance 515 nm
Description: (§1) In an embodiment, the AntiOxCINs antioxidant ranking activity hierarchy was established by in vitro non-cell methods. The selected total antioxidant capacity (TAC) assays (DPPH, ABTS and GO) involved the spectrophotometric measurement of the radical absorbance decrease as a result of an in situ radical deactivation by an antioxidant. Compounds with higher antioxidant activity display lower IC50 values. […] This decrease was attenuated/ameliorated by the increment of the spacer length and/or the introduction of additional hydroxyl group in the aromatic ring.
(§2) The radical scavenging activity of AntiOxCINs was evaluated by means of total antioxidant capacity assays based on DPPH., ABTS.^+ and GO. radicals. All these methods involved the spectrophotometric measurement of the absorbance decrease resulting from radical (DPPH., ABTS.^+ or GO.) deactivation with an antioxidant. The results were expressed in IC50, which is defined as the minimum antioxidant concentration necessary to reduce the amount of radical by 50%. Antioxidant assays were performed in a multiplate reader (Powerwave XS Microplate Reader) of Bio-Tech instruments.
In an embodiment, the DPPH. radical scavenging activity was performed as follows: solutions of the test compounds with increasing concentrations (range between 0 μM and 500 μM) were prepared in ethanol. A DPPH′ ethanolic solution (6.85 mM) was also prepared and then diluted to reach the absorbance of 0.72±0.02 at 515 nm. Each compound solution (20 μL) was added to 180 μL of DPPH′ solution in triplicate, and the absorbance at 515 nm was recorded minutely over 45 minutes. […] Dose-response curves were established for the determination of IC50 values. Data are means±SEM of three independent experiments.

[2] = ABTS radical cation scavenging activity (TAC assay); format: biochemical; settings: ethanol
Description: as §1, §2
In an embodiment, the ABTS.^+ scavenging activity was evaluated as follows: ethanolic solutions of the test compounds with increasing concentrations (range between 10 μM and 500 μM) were prepared. ABTS.^+ radical cation solution was obtained by addition of 150 mM aqueous potassium persulfate solution (163 μL) to 10 mL of 7 mM aqueous ABTS solution followed by storage in the dark at room temperature for 16 h (2.45 mM final concentration). The solution was then diluted in ethanol to reach the absorbance of 0.72±0.02. After addition of the compound (20 μL), in triplicate, to ABTS.^+ solution (180 μL) the spectrophotometric measurement was carried out each minute over 15 minutes. […] Dose-response curves were established for the determination of IC50 values. Data are means±SEM of three independent experiments.

[3] = GO radical scavenging activity (TAC assay); format: biochemical; settings: ethanol, absorbance 428 nm
Description: as §1, §2
In an embodiment, the GO′ scavenging activity was evaluated as follows: solutions of test compounds with concentrations from 5 μM to 75 μM were prepared in ethanol. An ethanolic solution of 5 mM GO′ was prepared and diluted to reach the absorbance of 1.00±0.02 at 428 nm. The addition (20 μL) in triplicate of compound solution to GO. solution (180 μL) was followed by absorbance measurement at 428 nm over 30 minutes, in the dark, at room temperature. […] Dose-response curves were established for the determination of IC50 values. Data are means±SEM of three independent experiments.

[4] = Redox properties by differential pulse and cyclic voltammetry; format: physicochemical
Protocol: In an embodiment, and as an example, AntiOxCINs redox properties were evaluated (Table 1). Redox potentials are correlated with the ability of an antioxidant to donate a hydrogen atom and/or an electron to a free radical.
However, for pyrogallol derivatives (AntiOxCIN4, AntiOxCIN5 and AntiOxCIN7), a significant decrease in redox potentials was observed (Ep=0.034-0.057 V) (Table 1).
The voltammograms presented a diffusion peak and an adsorption post-peak at a more anodic potential correspondent to the oxidation of dissolved and adsorbed forms of the compounds, respectively. The oxidation waves can be related to the oxidation process of the pyrogallol moiety. The cyclic voltammograms also show the presence of two overlapped anodic peaks. The anodic peaks appeared to correspond to irreversible processes as any distinct reduction wave was not seen on the cathodic sweep. The existence of the additional phenolic group in the pyrogallol systems, when compared with the catechol ones, seems to influence the stabilization of the semiquinone intermediate and in turn the oxidative mechanism.
(§3) In an embodiment, the electrochemical analytical data was obtained using a computer controlled potentiostat Autolab PGSTAT302N (Metrohm Autolab, Utrecht, Netherlands). Generally, cyclic voltammetry (CV) data was acquired at a scan rate of 50 mVs^−1. Differential pulse voltammetry (DPV) results were acquired at a step potential of 4 mV, pulse amplitude of 50 mV and scan rate of 8 mVs^−1. The electrochemical signals were monitored by the General Purpose Electrochemical System (GPES) version 4.9, software package. All electrochemical experiments were performed at room temperature in an electrochemical cell that was placed in a Faraday cage in order to minimize the contribution of background noise to the analytical signal.
(§4) In an embodiment, the process of evaluation of AntiOxCINs redox properties was conducted as follows: stock solutions of each compound (10 mM) were prepared by dissolving the appropriate amount in ethanol. The voltammetric working solutions were prepared in the electrochemical cell, at a final concentration of 0.1 mM. The […] supporting electrolyte was prepared by diluting […] to 100 mL. Voltammetric data was acquired in a three-electrode system consisting of a glassy carbon electrode (GCE, d=2 mm) as working electrode, a counter electrode of platinum wire and a saturated Ag/AgCl reference electrode. In an embodiment, the evaluation of AntiOxCINs lipophilic properties was performed as follows: the electrochemical cell was a four-electrode system with arrays of micro liquid-liquid interfaces (μlTIES) containing two Ag/AgCl reference electrodes and two counter electrodes of Pt, one in each phase. The microporous membrane was sealed with a fluorosilicone sealant (Dow Corning 730) onto a glass cylinder which was filled with 4.0 mL of the aqueous phase, where the aliquots of AntiOxCINs solutions were added. The membrane was then immersed into the organic phase contained in the cell. The organic phase reference solution (a 2 mM BTPPACI+2 mM NaCl aqueous solution) was mechanically stabilized The aqueous supporting electrolyte solution was a Tris-HCl buffer 10 mM pH 7.0.

[5] = Lipophilic properties by electrochemistry at ITIES (transfer potential); format: physicochemical; settings: aqueous phase to 1,6-dichlorohexane, DPV, C=0.32 mM
Protocol: In an embodiment, AntiOxCINs lipophilic properties were evaluated at physiological pH by electrochemistry. The used technique is often used to mimic the transfer of ionic drugs through biological membranes as the process occurs at the interface between two immiscible electrolyte solutions (ITIES). The transfer potential (Etr) at which the ionic drug, initially present in the aqueous phase (C=0.32 mM), is transferred to the 1,6-dichlorohexane (DCH) phase is measured by differential pulse voltammetry (DPV). In the ITIES model, the transfer potential (Etr) becomes less positive with the increasing of the drug lipophilic character.
as §3, §4

[6] = system: mouse myoblast C2C12 cells; settings: cited from earlier work

CS(=O)(=O)[O-].O=C(/C=C/c1ccc(O)c(O)c1)NCC[P+](c1ccccc1)(c1ccccc1)c1ccccc1 [AntiOxCIN1, reference compound]
IC50 [1]: 35.4 µM
IC50 [2]: 33.3 µM
IC50 [3]: 4.5 µM
reversibility of the oxidation reaction ([4]; cyclic voltammetry, physiological pH): reversible reaction
Ep (redox potential) ([4]; physiological pH (7.4), voltammetry, listed as AntiOxClN1): 0.166^a) V
Etr (transfer potential) [5]: 0.572 V
protection against oxidative stress stressors (H2O2, linoleic acid-hydroperoxides) [6]: protected
